Measured values reported in the supplement of paper PMC11061612.

What was measured:
[1] = tested on: BICR22 (Oral Cavity Carcinoma); experiment: Bliss excess, mean over the matrix (fraction); higher = more synergy
Method in brief: (§1)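 After 24 hours at 37°C and 5% CO2 in 1536-well plates, cells in DMEM/F12 or RPMI plus 10% FBS received two-drug dose matrices for 72 hours. Viability came from CellTiter-Glo 2.0 luminescence and was scaled as inhibition, anchored at 0 by vehicle wells and at 1 by blank wells. Combination Emax is taken as the second-highest inhibition in the matrix, and Bliss excess as the observed combination effect less EA + EB − EA·EB, with EA and EB the single-agent effects.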

[2] = tested on: CAPAN-2 (Pancreatic Carcinoma); experiment: as above
Method in brief: as §1

[3] = tested on: CCK-81 (Colorectal Carcinoma); experiment: as above
Method in brief: as §1

[4] = tested on: COLO-320-HSR (Colorectal Carcinoma); experiment: as above
Method in brief: as §1

[5] = tested on: ECC10 (Gastric Carcinoma); experiment: as above
Method in brief: as §1

FU97 (Gastric Carcinoma) [6] = experiment: as above
Method in brief: as §1

IGR-37 (Melanoma) [7] = experiment: as above
Method in brief: as §1

[8] = tested on: KARPAS-422 (B-Cell Non-Hodgkin's Lymphoma); experiment: as above
Method in brief: as §1

[9] = tested on: NCI-H1581 (Non-Small Cell Lung Carcinoma); experiment: as above
Method in brief: as §1

[10] = tested on: NCI-H1666 (Lung Adenocarcinoma); experiment: as above
Method in brief: as §1

[11] = tested on: NCI-H2066 (Squamous Cell Lung Carcinoma); experiment: as above
Method in brief: as §1

[12] = tested on: NCI-H64 (Small Cell Lung Carcinoma); experiment: as above
Method in brief: as §1

NY (Osteosarcoma) [13] = experiment: as above
Method in brief: as §1

[14] = tested on: ONS-76 (Other Solid Carcinomas); experiment: as above
Method in brief: as §1

[15] = tested on: PANC-10-05 (Pancreatic Carcinoma); experiment: as above
Method in brief: as §1

[16] = tested on: TT (Thyroid Gland Carcinoma); experiment: as above
Method in brief: as §1

U-2-OS (Osteosarcoma) [17] = experiment: as above
Method in brief: as §1

[18] = tested on: VCaP (Prostate Carcinoma); experiment: as above
Method in brief: as §1

[19] = tested on: BICR22 (Oral Cavity Carcinoma); experiment: combination Emax (second highest fraction inhibited in the dose matrix, 72 h); higher = more inhibition; extreme values may be limits of the assay
Method in brief: as §1

[20] = tested on: CAPAN-2 (Pancreatic Carcinoma); experiment: as above
Method in brief: as §1

[21] = tested on: CCK-81 (Colorectal Carcinoma); experiment: as above
Method in brief: as §1

[22] = tested on: COLO-320-HSR (Colorectal Carcinoma); experiment: as above
Method in brief: as §1

[23] = tested on: ECC10 (Gastric Carcinoma); experiment: as above
Method in brief: as §1

FU97 (Gastric Carcinoma) [24] = experiment: as above
Method in brief: as §1

IGR-37 (Melanoma) [25] = experiment: as above
Method in brief: as §1

[26] = tested on: KARPAS-422 (B-Cell Non-Hodgkin's Lymphoma); experiment: as above
Method in brief: as §1

[27] = tested on: NCI-H1581 (Non-Small Cell Lung Carcinoma); experiment: as above
Method in brief: as §1

[28] = tested on: NCI-H1666 (Lung Adenocarcinoma); experiment: as above
Method in brief: as §1

[29] = tested on: NCI-H2066 (Squamous Cell Lung Carcinoma); experiment: as above
Method in brief: as §1

[30] = tested on: NCI-H64 (Small Cell Lung Carcinoma); experiment: as above
Method in brief: as §1

NY (Osteosarcoma) [31] = experiment: as above
Method in brief: as §1

[32] = tested on: ONS-76 (Other Solid Carcinomas); experiment: as above
Method in brief: as §1

[33] = tested on: PANC-10-05 (Pancreatic Carcinoma); experiment: as above
Method in brief: as §1

[34] = tested on: TT (Thyroid Gland Carcinoma); experiment: as above
Method in brief: as §1

U-2-OS (Osteosarcoma) [35] = experiment: as above
Method in brief: as §1

[36] = tested on: VCaP (Prostate Carcinoma); experiment: as above
Method in brief: as §1
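Throughout, for Bliss excess, mean over the matrix: after 72 h of two-drug dosing.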

Compound: Cc1nc(-c2cn3c(n2)-c2ccc(-c4cnn(C(C)(C)C(N)=O)c4)cc2OCC3)n(C(C)C)n1 [Taselisib] + O=C(Nc1ccc2[nH]nc(-c3ccncc3)c2c1)[C@@H]1CCN(CC(=O)N2CCN(c3ccc(-c4ncccn4)cc3)CC2)C1 [SCH772984] (first compound max 10 µM, 7x7, partner max 5 µM)
- Bliss excess [1]: 0.116
- Bliss excess [2]: 0.0241
- Bliss excess [3]: 0.0528
- Bliss excess [4]: -0.0441
- Bliss excess [5]: 0.124
- Bliss excess (FU97 (Gastric Carcinoma) [6]): 0.0139
- Bliss excess (IGR-37 (Melanoma) [7]): 0.0732
- Bliss excess [8]: 0.0406
- Bliss excess [9]: 0.178
- Bliss excess [10]: 0.0878
- Bliss excess [11]: 0.0133
- Bliss excess [12]: 0.0028
- Bliss excess (NY (Osteosarcoma) [13]): 0.0687
- Bliss excess [14]: 0.0608
- Bliss excess [15]: 0.0166
- Bliss excess [16]: 0.106
- Bliss excess (U-2-OS (Osteosarcoma) [17]): 0.112
- Bliss excess [18]: -0.0098
- combination Emax [19]: 0.966
- combination Emax [20]: 0.521
- combination Emax [21]: 0.988
- combination Emax [22]: 0.419
- combination Emax [23]: 1
- combination Emax (FU97 (Gastric Carcinoma) [24]): 0.404
- combination Emax (IGR-37 (Melanoma) [25]): 0.938
- combination Emax [26]: 0.554
- combination Emax [27]: 0.635
- combination Emax [28]: 0.881
- combination Emax [29]: 0.681
- combination Emax [30]: 0.377
- combination Emax (NY (Osteosarcoma) [31]): 0.564
- combination Emax [32]: 0.976
- combination Emax [33]: 0.809
- combination Emax [34]: 0.568
- combination Emax (U-2-OS (Osteosarcoma) [35]): 0.993
- combination Emax [36]: 0.587

Compound: CC1(C)CCC(CN2CCN(c3ccc(C(=O)NS(=O)(=O)c4ccc(NCC5CCOCC5)c([N+](=O)[O-])c4)c(Oc4cnc5[nH]ccc5c4)c3)CC2)=C(c2ccc(Cl)cc2)C1 [Venetoclax] + CS(=O)(=O)CCNCc1ccc(-c2ccc3ncnc(Nc4ccc(OCc5cccc(F)c5)c(Cl)c4)c3c2)o1 [Lapatinib] (first compound max 1 µM, 7x7, partner max 10 µM)
- Bliss excess [1]: -0.0287
- Bliss excess [2]: -0.0425
- Bliss excess [3]: -0.0352
- Bliss excess [4]: -0.0048
- Bliss excess [5]: 0.0105
- Bliss excess (FU97 (Gastric Carcinoma) [6]): 0.0218
- Bliss excess (IGR-37 (Melanoma) [7]): 0.0223
- Bliss excess [8]: 0.049
- Bliss excess [9]: -0.0136
- Bliss excess [10]: -0.0214
- Bliss excess [11]: -0.0203
- Bliss excess [12]: -0.0068
- Bliss excess (NY (Osteosarcoma) [13]): -0.0008
- Bliss excess [14]: -0.0055
- Bliss excess [15]: -0.0426
- Bliss excess [16]: -0.0344
- Bliss excess (U-2-OS (Osteosarcoma) [17]): -0.044
- Bliss excess [18]: -0.0449
- combination Emax [19]: 0.21
- combination Emax [20]: 0.115
- combination Emax [21]: 0.892
- combination Emax [22]: 0.169
- combination Emax [23]: 0.94
- combination Emax (FU97 (Gastric Carcinoma) [24]): 0.813
- combination Emax (IGR-37 (Melanoma) [25]): 0.253
- combination Emax [26]: 0.884
- combination Emax [27]: 0.242
- combination Emax [28]: 0.568
- combination Emax [29]: 0.352
- combination Emax [30]: 0.21
- combination Emax (NY (Osteosarcoma) [31]): 0.226
- combination Emax [32]: 0.228
- combination Emax [33]: 0.353
- combination Emax [34]: 0.121
- combination Emax (U-2-OS (Osteosarcoma) [35]): 0.0668
- combination Emax [36]: 0.109
